According to PMC12292521, “Discovery of a Potent Antimicrobial Peptide Through Rational Design: A New Frontier in Pathogen Control” (Biomolecules, 2025):
Converted amounts (≈) assume the structure as drawn. Peptide text beside a SMILES is read from it.

Experiments:
Campylobacter jejuni = type: cell-based; conditions: 6 h
Description: (§1) To assess the antimicrobial potential of the designed peptide, different strains of Gram-negative and Gram-positive bacteria were evaluated. Pseudomonas aeruginosa was an ATCC (27853) strain, while Escherichia coli, Listeria monocytogenes, Staphylococcus aureus, Campylobacter jejuni, Salmonella Typhimurium, the monophasic variant of Salmonella Typhimurium and Salmonella Napoli were isolated from food products by the Laboratory of Microbiological Food Control—Department of Food Microbiology of the Istituto Zooprofilattico Sperimentale del Mezzogiorno (IZSM) in Portici (Naples, Italy).
(§2) In accordance with the Clinical & Laboratory Standards Institute guidelines (CLSI, 2015), the Minimum Bactericidal Concentration (MBC), defined as the minimum concentration of peptide required to kill 99.9% of the tested bacterial suspension within a defined time interval, was determined. L. monocytogenes, E. coli, S. aureus, S. Typhimurium, monophasic variant of S. Typhimurium, S. Napoli, and P. aeruginosa were cultured at 37 °C in buffered peptone water (Thermo Fisher, Milan, Italy), while C. jejuni was cultured in Bolton Broth (Oxoid, Madrid, Spain). The bacterial suspension was collected and then diluted in fresh broth to a final concentration of 1.0 × 10^3 or 1.0 × 10^5 colony-forming units (CFUs)/mL. […] Samples containing only cell suspension and DMSO were used as controls. […]

Salmonella Napoli = type: cell-based; conditions: 6 h
Description: as §1, §2

[1] = 100 µM peptide, 37 °C, 24 h, RP-HPLC C18, absorbance 280 nm, peak area vs time 0, three independent studies
Description: A total of 3.7 mg of peptide was dissolved in 1 mL of Milli-Q H2O to obtain a 2 mM stock solution. A 5% solution of Newborn Calf Serum (NCS) was prepared in Dulbecco’s phosphate-buffered saline (DPBS) (v/v) and then subjected to heat-inactivation by incubating the solution at 57 °C for 45 min (Hi-NCS). Therefore, 100 µM of peptide was incubated in 5% Hi-NCS at 37 °C for 24 h in DPBS. […] Therefore, the samples were centrifuged at 13,000 rpm for 5 min, and the supernatants were diluted in an equal volume of water. Finally, 200 µL of the collected solutions were loaded onto a μBondapak reversed-phase C18 column (Waters, 3.9 mm × 300 mm) connected to an HPLC system (Shimadzu, Milan, Italy), using a linear gradient of acetonitrile (5–95%) in water containing 0.1% TFA at a flow rate of 1 mL/min, and absorbance was detected at 280 nm. […] Samples containing only Hi-NCS were also analyzed. The same experiments were performed in the presence of NCS, not subjected to the heat inactivation treatment. Results are the average of three independent studies.

[2] = Conformational stability by CD and fluorescence spectroscopy in SDS; type: physicochemical
Description: The secondary structure elements of the antimicrobial molecule were analyzed in a 0.1 cm optical path-length quartz cuvette (Hellma Analytics, Milan, Italy) using Jasco J-810 Circular Dichroism Spectropolarimeter (JASCO, Tokyo, Japan). All spectra were recorded at 25 °C in a wavelength range of 190–250 nm with a 1 nm bandwidth, a scanning speed of 20 nm/min, and averaged over five scans. The spectra as a function of SDS concentration (3, 50, and 150 mM) were obtained at 50 μM final concentration of peptide in 10 mM Tris-HCl buffer, pH 7.0. The folding kinetic analysis of the peptide was carried out after the addition of SDS (50 mM) to the sample (50 μM in 10 mM Tris-HCl, pH 7.0), up to 24 h incubation. […] Next, 50 mM of SDS was added to each sample, which was analyzed by CD spectroscopy after 48 h of incubation at 25 °C. […] All CD spectra of RKW were corrected by subtracting a blank spectrum of a sample containing all components except the peptide (baseline correction). The mean residue ellipticity ([θ], deg. cm^2 dmol^−1) was obtained by the equation [θ] = 100 θ/cnl, where θ is the ellipticity (mdeg), c is the peptide concentration (mM), n is the number of residues, and l is the path length (cm).
Fluorescence experiments were conducted in a Shimadzu RF-6000 spectrofluorometer (Kyoto, Japan). The analyses were performed by setting an excitation and emission slit width of 5 nm and using a quartz cell with a path length of 1 cm. The intrinsic tryptophan residues were excited at a wavelength of 280 nm, following the emission between 300 and 400 nm. The effects of SDS on the peptide folding, the folding kinetics, and the thermal and the pH stability were monitored as described in Section 2.2.

## CC[C@H](C)[C@H](NC(=O)[C@H](Cc1c[nH]c2ccccc12)NC(=O)[C@H](CCCCN)NC(=O)[C@@H](N)CCCNC(=N)N)C(=O)N[C@@H](CC(C)C)C(=O)N[C@@H](CCCCN)C(=O)N[C@@H](Cc1c[nH]c2ccccc12)C(=O)N[C@@H](CC(C)C)C(=O)N[C@@H](CCCNC(=N)N)C(=O)N[C@H](C(=O)N[C@@H](Cc1c[nH]c2ccccc12)C(=O)N[C@@H](CCCCN)C(=O)N[C@@H](CCCCN)C(N)=O)[C@@H](C)O [RKW] (H-RKWILKWLRTWKK-NH2; N-terminus assumed)
Campylobacter jejuni
  MBC: 80 µM (≈ 147 µg/mL)
Salmonella Napoli
  MBC: 20 µM (≈ 36.8 µg/mL)
[1]; 5% Hi-NCS (57 °C, 45 min) in DPBS
  Stability of RKW in heat-inactivated serum (Hi-NCS): no peptide breakage
[1]; 5% NCS in DPBS
  Stability of RKW in serum, not heat-inactivated (NCS): complete degradation pattern
[2]; 50 μM peptide, 10 mM Tris-HCl pH 7.0, 50 mM SDS, 25 °C, up to 24 h, CD and fluorescence
  α-helical conformation over time in SDS: did not markedly change its α-helical conformation
[2]; 50 μM peptide, 10 mM glycine-HCl pH 2.0, 50 mM SDS, 48 h at 25 °C, CD
  Helical content at extreme acidic pH: entirely disordered
[2]; 50 μM peptide, 50 mM SDS, pH 7.0 and 11.0 at 25 °C, 4, 37 and 90 °C at pH 7.0, 48 h, CD and fluorescence
  Structural and folding stability in SDS micellar solution under other pH and temperature conditions: not markedly affected
[2]; membrane-like environment (SDS), abstract
  Time the α-helical conformation remains stable in a wide range of pH and temperature: at least 48 h
